What was measured:
Type in all cases: functional
Eca-109/VCR [1] = experiment: Cytotoxicity against human Eca-109/VCR cells assessed as reduction in cell viability at 5.0 uM incubated for 48 hrs by CCK-8 assay relative to control
[2] = Reversal fold, ratio of vincristine IC50 to vincristine IC50 in presence of test compound for reversal of drug resistance in human Eca-109/VCR cells at 5 uM incubated for 48 hrs by CCK-8 assay
Eca-109/VCR [3] = experiment: Induction of apoptosis in human Eca-109/VCR cells assessed as viable cells at 5 uM incubated for 60 hrs by Annexin V-FITC/PI staining based flow cytometric analysis (reference value: 97.4%); conditions: read-out: Activity
Eca-109/VCR [4] = experiment: Induction of apoptosis in human Eca-109/VCR cells assessed as late apoptotic cells at 2.5 uM incubated for 60 hrs in presence of vincristine by Annexin V-FITC/PI staining based flow cytometric analysis (reference value: 0.56%)
Eca-109/VCR [5] = experiment: Induction of apoptosis in human Eca-109/VCR cells assessed as necrotic cells at 5 uM incubated for 60 hrs in presence of vincristine by Annexin V-FITC/PI staining based flow cytometric analysis (reference value: 0.10%)
Eca-109/VCR [6] = experiment: Induction of apoptosis in human Eca-109/VCR cells assessed as early apoptotic cells at 5 uM incubated for 60 hrs by Annexin V-FITC/PI staining based flow cytometric analysis (reference value: 1.66%)
Eca-109/VCR [7] = experiment: Induction of apoptosis in human Eca-109/VCR cells assessed as necrotic cells at 2.5 uM incubated for 60 hrs by Annexin V-FITC/PI staining based flow cytometric analysis (reference value: 0.22%)
Eca-109/VCR [8] = experiment: Induction of apoptosis in human Eca-109/VCR cells assessed as viable cells at 2.5 uM incubated for 60 hrs by Annexin V-FITC/PI staining based flow cytometric analysis (reference value: 97.4%); conditions: read-out: Activity
Eca-109/VCR [9] = experiment: Induction of apoptosis in human Eca-109/VCR cells assessed as late apoptotic cells at 2.5 uM incubated for 60 hrs by Annexin V-FITC/PI staining based flow cytometric analysis (reference value: 0.70%)
Eca-109/VCR [10] = experiment: Induction of apoptosis in human Eca-109/VCR cells assessed as necrotic cells at 5 uM incubated for 60 hrs by Annexin V-FITC/PI staining based flow cytometric analysis (reference value: 0.22%)
Eca-109/VCR [11] = experiment: Induction of apoptosis in human Eca-109/VCR cells assessed as necrotic cells at 2.5 uM incubated for 60 hrs in presence of vincristine by Annexin V-FITC/PI staining based flow cytometric analysis (reference value: 0.10%)
Eca-109/VCR [12] = experiment: Induction of apoptosis in human Eca-109/VCR cells assessed as viable cells at 5 uM incubated for 60 hrs in presence of vincristine by Annexin V-FITC/PI staining based flow cytometric analysis (reference value: 97.3%); conditions: read-out: Activity
Eca-109/VCR [13] = experiment: Induction of apoptosis in human Eca-109/VCR cells assessed as viable cells at 2.5 uM incubated for 60 hrs in presence of vincristine by Annexin V-FITC/PI staining based flow cytometric analysis (reference value: 97.3%); conditions: read-out: Activity
Eca-109/VCR [14] = experiment: Induction of apoptosis in human Eca-109/VCR cells assessed as late apoptotic cells at 5 uM incubated for 60 hrs in presence of vincristine by Annexin V-FITC/PI staining based flow cytometric analysis (reference value: 0.56%)
Eca-109/VCR [15] = experiment: Induction of apoptosis in human Eca-109/VCR cells assessed as early apoptotic cells at 2.5 uM incubated for 60 hrs by Annexin V-FITC/PI staining based flow cytometric analysis (reference value: 1.66%)

Row | SMILES | Cell viability (% of control) (Eca-109/VCR [1]) [%] | Ratio IC50 [2] | also measured
1 | COc1cc2c(cc1OC)C(Cc1ccc(OCc3ccc(Br)cc3)c(OC)c1)N(C)CC2 (stereo unspecified) | 91.1 | 201.2 | –
2 | COc1cc2c(cc1OC)C(Cc1ccc(OCc3ccccc3)c(OC)c1)N(C)CC2 (stereo unspecified) | 101.4 | 80.3 | –
3 | COc1cc2c(cc1OC)C(Cc1ccc(OC)c(OS(=O)(=O)c3ccc4ccccc4c3)c1)N(C)CC2 (stereo unspecified) | 94.7 | 340.5 | –
4 | COc1cc2c(cc1OC)CN(CCc1ccc(NC(=O)c3cc(OC)c(OC)cc3NC(=O)c3cnc4ccccc4c3)cc1)CC2 [TARIQUIDAR] | 84.8 | – | viability at 5 µM (Eca-109/VCR [3]): 95.6%; Activity (Eca-109/VCR [4]): 7.6%; Activity (Eca-109/VCR [5]): 0.57%; Activity (Eca-109/VCR [6]): 3.18%; Activity (Eca-109/VCR [7]): 0.22%; viability at 2.5 µM (Eca-109/VCR [8]): 96.1%; Activity (Eca-109/VCR [9]): 0.64%; Activity (Eca-109/VCR [10]): 0.21%; Activity (Eca-109/VCR [11]): 0.47%; viability at 5 µM (Eca-109/VCR [12]): 63.4%; viability at 2.5 µM (Eca-109/VCR [13]): 63.2%; Activity (Eca-109/VCR [14]): 7%; Activity (Eca-109/VCR [15]): 1%
5 | COc1cc2c(cc1OC)C(Cc1ccc(OC)c(OCC(=O)OC(C)(C)C)c1)N(C)CC2 (stereo unspecified) | 104.3 | 3.6 | –
6 | COc1cc2c(cc1OC)C(Cc1ccc(OS(=O)(=O)c3ccc4ccccc4c3)c(OC)c1)N(C)CC2 (stereo unspecified) | 84.7 | 362.1 | –
7 | COc1cc2c(cc1OC)C(Cc1ccc(OC)c(Oc3ccc([N+](=O)[O-])cc3)c1)N(C)CC2 (stereo unspecified) | 100.4 | 53.2 | –
8 | COc1cc2c(cc1OC)C(Cc1ccc(OC)c(OC(=O)C3CCCCC3)c1)N(C)CC2 (stereo unspecified) | 103.6 | 4.5 | –
9 | CCOCCOCCOc1cc(CC2c3cc(OC)c(OC)cc3CCN2C)ccc1OC (stereo unspecified) | 103.1 | 2.2 | –
10 | COc1cc2c(cc1OC)C(Cc1ccc(OC)c(OS(=O)(=O)c3ccccc3F)c1)N(C)CC2 (stereo unspecified) | 98.9 | 16.5 | –
11 | COc1cc2c(cc1OC)C(Cc1ccc(OCc3ccc(Cl)cc3Cl)c(OC)c1)N(C)CC2 (stereo unspecified) | 92.4 | 307.6 | –
12 | COc1cc2c(cc1OC)C(Cc1ccc(OC)c(OS(=O)(=O)c3ccc(C#N)cc3)c1)N(C)CC2 (stereo unspecified) | 96 | 235.4 | –
13 | COC(=O)c1sccc1S(=O)(=O)Oc1cc(CC2c3cc(OC)c(OC)cc3CCN2C)ccc1OC (stereo unspecified) | 100.7 | 12.3 | –
14 | COc1cc2c(cc1OC)C(Cc1ccc(OC)c(OS(=O)(=O)c3ccccc3)c1)N(C)CC2 (stereo unspecified) | 102.6 | 24 | –
15 | COc1cc2c(cc1OC)C(Cc1ccc(OC)c(OS(=O)(=O)Cc3ccccc3)c1)N(C)CC2 (stereo unspecified) | 101.5 | 180 | –
16 | COc1cc2c(cc1OC)C(Cc1ccc(OC)c(OS(=O)(=O)c3ccc(C(F)(F)F)cc3)c1)N(C)CC2 (stereo unspecified) | 100.5 | 371.9 | –
17 | COC(=O)c1sccc1S(=O)(=O)Oc1ccc(CC2c3cc(OC)c(OC)cc3CCN2C)cc1OC (stereo unspecified) | 101.9 | 182.2 | –
18 | COc1cc2c(cc1OC)C(Cc1ccc(OCC3CCC3)c(OC)c1)N(C)CC2 (stereo unspecified) | 107.9 | 188.7 | –
19 | COc1cc2c(cc1OC)C(Cc1ccc(OC)c(OCc3ccc(Cl)cc3Cl)c1)N(C)CC2 (stereo unspecified) | 55.4 | 412.3 | –
20 | COc1cc2c(cc1OC)C(Cc1ccc(OCCC(C)C)c(OC)c1)N(C)CC2 (stereo unspecified) | 105.5 | 227.1 | –
21 | C=CCCCCOc1cc(CC2c3cc(OC)c(OC)cc3CCN2C)ccc1OC (stereo unspecified) | 98.2 | 15.2 | –
22 | COc1cc2c(cc1OC)C(Cc1ccc(OS(=O)(=O)c3ccc(C(F)(F)F)cc3)c(OC)c1)N(C)CC2 (stereo unspecified) | 90.4 | 307.4 | –

Source: ChEMBL document CHEMBL6182888, “Design, synthesis, and biological activity study of 6,7-dimethoxy-1,2,3,4-tetrahydroisoquinoline derivatives against multidrug resistance in Eca109/VCR cells” (Eur J Med Chem, 2025)
